Counter-ions that a name gives are not always drawn. Like-named read-outs stand apart in the source and are kept apart here.
Test: Solubility of bendamustine HCl in 0.9% saline with non-aqueous solubilizer (Example 1)
Format: physicochemical
Conditions: for solubility at 30 min: 22.5 °C; for solubility at 30 min / solubility at 24 h: thermodynamic from solid; for solubility at 24 h: 5 °C
Procedure: Essentially, an excess of bendamustine HCl was added to solvents comprising of various volume percent of the non-aqueous solubilizer in 0.9% saline, and allowed to equilibrate with shaking for 30 minutes at room temperature, or for 24 hours at refrigerated temperature. At the end of the equilibration step, the suspensions were filtered through a 0.2 micron filter to remove undissolved bendamustine, and the filtrate solutions analyzed for bendamustine HCl content using a HPLC assay; quantification was performed against a bendamustine HCl reference standard.

## Cn1c(CCCC(=O)O)nc2cc(N(CCCl)CCCl)ccc21 [bendamustine HCl]
0.9% saline with 5 mg/ml monothioglycerol, saline or isotonic, Room temperature, API Source B, solvent also contained 5 mg/ml monothioglycerol, 100.0% Normal Saline, 0.0% Non-aqueous Solubilizer, read-out: Solubility of bendamustine HCl
  solubility at 30 min: ~3300 µg/mL
0.9% saline, saline or isotonic, 5° C., API Source A, 100.0% Normal Saline, 0.0% Non-aqueous Solubilizer (90:10 PEG 400/PG), read-out: Solubility of bendamustine HCl
  solubility at 24 h: 1180 µg/mL
0.9% saline, saline or isotonic, Room temperature, API Source A, 100.0% Normal Saline, 0.0% Non-aqueous Solubilizer (90:10 PEG 400/PG), read-out: Solubility of bendamustine HCl
  solubility at 30 min: 3460 µg/mL
Aqueous with cosolvent or surfactant or cyclodextrin, 5° C., API Source A, 80.0% Normal Saline, 20.0% Non-aqueous Solubilizer (90:10 PEG 400/PG), read-out: Solubility of bendamustine HCl
  solubility at 24 h: 3820 µg/mL
Aqueous with cosolvent or surfactant or cyclodextrin, 5° C., API Source A, 82.5% Normal Saline, 17.5% Non-aqueous Solubilizer (90:10 PEG 400/PG), read-out: Solubility of bendamustine HCl
  solubility at 24 h: 3330 µg/mL
Aqueous with cosolvent or surfactant or cyclodextrin, 5° C., API Source A, 85.0% Normal Saline, […] Non-aqueous Solubilizer (90:10 PEG 400/PG), read-out: Solubility of bendamustine HCl
  solubility at 24 h: 2900 µg/mL
Aqueous with cosolvent or surfactant or cyclodextrin, 5° C., API Source A, 90.0% Normal Saline, 10.0% Non-aqueous Solubilizer (90:10 PEG 400/PG), read-out: Solubility of bendamustine HCl
  solubility at 24 h: 2430 µg/mL
Aqueous with cosolvent or surfactant or cyclodextrin, 5° C., API Source A, 95.0% Normal Saline, 5.0% Non-aqueous Solubilizer (90:10 PEG 400/PG), read-out: Solubility of bendamustine HCl
  solubility at 24 h: 2020 µg/mL
Aqueous with cosolvent or surfactant or cyclodextrin, refrigerated, 19.4% of the non-aqueous component in the final 100 ml admixture, read-out: solubility of bendamustine HCl in final admixture
  solubility at 24 h: ~3800 µg/mL
Aqueous with cosolvent or surfactant or cyclodextrin, Room temperature, API Source A, 70.0% Normal Saline, 30.0% Non-aqueous Solubilizer (90:10 PEG 400/PG), read-out: Solubility of bendamustine HCl
  solubility at 30 min: 12000 µg/mL
Aqueous with cosolvent or surfactant or cyclodextrin, Room temperature, API Source A, 80.0% Normal Saline, 20.0% Non-aqueous Solubilizer (90:10 PEG 400/PG), read-out: Solubility of bendamustine HCl
  solubility at 30 min: 8640 µg/mL
Aqueous with cosolvent or surfactant or cyclodextrin, Room temperature, API Source A, 85.0% Normal Saline, […] Non-aqueous Solubilizer (90:10 PEG 400/PG), read-out: Solubility of bendamustine HCl
  solubility at 30 min: 7010 µg/mL
Aqueous with cosolvent or surfactant or cyclodextrin, Room temperature, API Source A, 90.0% Normal Saline, 10.0% Non-aqueous Solubilizer (90:10 PEG 400/PG), read-out: Solubility of bendamustine HCl
  solubility at 30 min: 5630 µg/mL
Aqueous with cosolvent or surfactant or cyclodextrin, Room temperature, API Source A, 95.0% Normal Saline, 5.0% Non-aqueous Solubilizer (90:10 PEG 400/PG), read-out: Solubility of bendamustine HCl
  solubility at 30 min: 4430 µg/mL
Aqueous with cosolvent or surfactant or cyclodextrin, room temperature, 16.1% of the non-aqueous component in the final 50 ml admixture, read-out: room temperature solubility of bendamustine HCl in final admixture
  solubility at 30 min: ~6500 µg/mL
Saline or isotonic, Room temperature, API Source A, 97.5% Normal Saline, 2.5% Non-aqueous Solubilizer (90:10 PEG 400/PG), read-out: Solubility of bendamustine HCl
  solubility at 30 min: 3990 µg/mL
Saline or isotonic, Room temperature, API Source B, solvent also contained 5 mg/ml monothioglycerol, 97.5% Normal Saline, 2.5% Non-aqueous Solubilizer, read-out: Solubility of bendamustine HCl
  solubility at 30 min: 3890 µg/mL
Room temperature, API Source B, solvent also contained 5 mg/ml monothioglycerol, 70.0% Normal Saline, 30.0% Non-aqueous Solubilizer
  Solubility of bendamustine HCl: 11407 µg/mL
Room temperature, API Source B, solvent also contained 5 mg/ml monothioglycerol, 80.0% Normal Saline, 20.0% Non-aqueous Solubilizer, HCl
  Solubility of bendamustine HCl: 8492 µg/mL
Room temperature, API Source B, solvent also contained 5 mg/ml monothioglycerol, 82.5% Normal Saline, 17.5% Non-aqueous Solubilizer
  Solubility of bendamustine HCl: 7641 µg/mL
Room temperature, API Source B, solvent also contained 5 mg/ml monothioglycerol, 85.0% Normal Saline, […] Non-aqueous Solubilizer
  Solubility of bendamustine HCl: 6554 µg/mL
Room temperature, API Source B, solvent also contained 5 mg/ml monothioglycerol, 87.5% Normal Saline, 12.5% Non-aqueous Solubilizer
  Solubility of bendamustine HCl: 5825 µg/mL
Room temperature, API Source B, solvent also contained 5 mg/ml monothioglycerol, 90.0% Normal Saline, 10.0% Non-aqueous Solubilizer
  Solubility of bendamustine HCl: 5351 µg/mL
Room temperature, API Source B, solvent also contained 5 mg/ml monothioglycerol, 92.5% Normal Saline, 7.5% Non-aqueous Solubilizer
  Solubility of bendamustine HCl: 4742 µg/mL
Room temperature, API Source B, solvent also contained 5 mg/ml monothioglycerol, 95.0% Normal Saline, 5.0% Non-aqueous Solubilizer
  Solubility of bendamustine HCl: 4204 µg/mL
